The target in experiment [1] is T1, Protein-arginine deiminase type-1 (Homo sapiens, UniProt Q9ULC6).
T1 sequence (Q9ULC6 whole entry): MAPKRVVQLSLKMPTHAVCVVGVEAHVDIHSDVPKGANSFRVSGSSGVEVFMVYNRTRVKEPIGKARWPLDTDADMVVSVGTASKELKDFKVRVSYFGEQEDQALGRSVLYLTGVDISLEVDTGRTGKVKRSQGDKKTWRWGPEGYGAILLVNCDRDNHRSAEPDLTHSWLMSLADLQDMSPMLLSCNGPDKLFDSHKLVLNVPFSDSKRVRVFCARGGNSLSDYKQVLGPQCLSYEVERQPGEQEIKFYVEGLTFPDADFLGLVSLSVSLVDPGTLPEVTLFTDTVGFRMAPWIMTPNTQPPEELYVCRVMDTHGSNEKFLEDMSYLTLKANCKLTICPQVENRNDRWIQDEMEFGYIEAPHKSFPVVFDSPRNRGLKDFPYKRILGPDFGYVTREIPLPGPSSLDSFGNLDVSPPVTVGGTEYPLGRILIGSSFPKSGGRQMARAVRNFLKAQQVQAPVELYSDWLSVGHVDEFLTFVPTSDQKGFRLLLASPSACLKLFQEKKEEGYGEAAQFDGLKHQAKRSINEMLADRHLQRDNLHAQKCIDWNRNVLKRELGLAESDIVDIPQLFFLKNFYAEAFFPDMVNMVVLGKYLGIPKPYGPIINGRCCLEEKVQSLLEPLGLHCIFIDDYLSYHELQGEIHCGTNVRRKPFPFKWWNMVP
Briefly: Inhibition of recombinant human 6His-tagged PAD1 assessed as reduction in residual activity preincubated for 15 mins followed by addition of N-benzoylated arginine ethyl ester hydrochloride measured after 15 mins by colder assay.

Experiment [2] concerns the target Protein-arginine deiminase type-2 (Homo sapiens, UniProt Q9Y2J8). Briefly: Inhibition of recombinant human 6His-tagged PAD2 assessed as reduction in residual activity preincubated for 15 mins followed by addition of N-benzoylated arginine ethyl ester hydrochloride measured after 15 mins by colder assay.
The target in experiment [3] is Protein-arginine deiminase type-4 (Homo sapiens, UniProt Q9UM07). Briefly: Inhibition of recombinant human GST-tagged PAD4 expressed in Escherichia coli BL21-DE3 pLysS assessed as reduction in reduction in residual activity preincubated for 15 mins followed by addition of N-benzoylated arginine ethyl ester hydrochloride measured after 15 mins by colder assay.
Sequence of Protein-arginine deiminase type-4 (Q9UM07 whole entry): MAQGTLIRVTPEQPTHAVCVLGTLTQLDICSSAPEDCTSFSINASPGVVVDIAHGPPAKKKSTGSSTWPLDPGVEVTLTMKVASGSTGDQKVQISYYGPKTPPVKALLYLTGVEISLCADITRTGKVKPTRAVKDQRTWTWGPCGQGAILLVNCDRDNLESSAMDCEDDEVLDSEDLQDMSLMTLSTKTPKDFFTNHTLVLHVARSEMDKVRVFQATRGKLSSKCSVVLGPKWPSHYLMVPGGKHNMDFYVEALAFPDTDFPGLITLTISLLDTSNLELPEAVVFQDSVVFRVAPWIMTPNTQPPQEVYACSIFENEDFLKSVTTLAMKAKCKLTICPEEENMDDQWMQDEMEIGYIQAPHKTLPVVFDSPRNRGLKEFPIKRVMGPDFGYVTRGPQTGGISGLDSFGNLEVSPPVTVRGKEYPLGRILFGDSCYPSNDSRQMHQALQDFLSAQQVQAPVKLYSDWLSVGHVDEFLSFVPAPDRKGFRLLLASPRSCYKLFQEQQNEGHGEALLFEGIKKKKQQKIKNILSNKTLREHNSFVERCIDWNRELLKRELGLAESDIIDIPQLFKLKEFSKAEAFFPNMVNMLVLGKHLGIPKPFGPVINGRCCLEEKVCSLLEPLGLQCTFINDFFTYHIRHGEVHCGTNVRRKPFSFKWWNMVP

Sequence of Protein-arginine deiminase type-2 (Q9Y2J8 whole entry): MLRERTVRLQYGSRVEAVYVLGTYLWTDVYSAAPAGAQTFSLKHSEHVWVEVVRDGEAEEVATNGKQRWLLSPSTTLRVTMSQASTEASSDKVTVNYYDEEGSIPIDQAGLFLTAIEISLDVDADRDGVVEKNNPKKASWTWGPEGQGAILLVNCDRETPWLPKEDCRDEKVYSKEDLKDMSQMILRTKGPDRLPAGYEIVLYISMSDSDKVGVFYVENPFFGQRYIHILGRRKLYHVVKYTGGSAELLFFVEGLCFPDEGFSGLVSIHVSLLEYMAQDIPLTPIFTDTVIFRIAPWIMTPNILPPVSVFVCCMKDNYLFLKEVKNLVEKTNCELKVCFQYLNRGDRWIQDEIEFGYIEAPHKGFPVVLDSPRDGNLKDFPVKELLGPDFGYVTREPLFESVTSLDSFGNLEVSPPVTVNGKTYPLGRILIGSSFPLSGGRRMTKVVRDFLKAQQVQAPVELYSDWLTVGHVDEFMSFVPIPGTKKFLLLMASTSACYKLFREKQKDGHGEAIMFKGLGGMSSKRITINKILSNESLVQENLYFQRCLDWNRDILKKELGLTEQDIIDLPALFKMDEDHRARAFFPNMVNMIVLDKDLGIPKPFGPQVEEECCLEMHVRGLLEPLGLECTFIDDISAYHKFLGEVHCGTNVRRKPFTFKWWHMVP

Consider `N=C(CCl)NCC#CC(=O)NCc1cccc(-c2ccccc2)c1`, for which the IC50 is 408 µM in experiment [1] and 153 µM in experiment [2]. In the case of `N=C(CCl)NCCNC(=O)NCc1cccc(-c2ccccc2)c1`, the half-inhibitory concentration (IC50) in experiment [2] amounted to 140 µM; in experiment [3], 129 µM.

`N=C(CCl)NCCCc1cn(-c2cccc(-c3ccccc3)c2)nn1`: the IC50 in experiment [1] is 294 µM; in experiment [2] it was 110 µM. In the case of `N=C(CCl)NCCCc1nc(Cl)c(-c2cccc(-c3ccccc3)c2)[nH]1`, the half-inhibitory concentration (IC50) in experiment [1] is 161 µM. Regarding `N=C(CCl)NCCOC(=O)NCc1cccc(-c2ccccc2)c1`, the half-inhibitory concentration (IC50) is above 500 µM in experiment [1] and 151 µM in experiment [2]. In the case of `N=C(CCl)NC/C=C/C(=O)NCc1cccc(-c2ccccc2)c1`, in experiment [1], the IC50 came to 125 µM.

Values taken from ChEMBL document CHEMBL4431395, “Cellular Activity of New Small Molecule Protein Arginine Deiminase 3 (PAD3) Inhibitors” (ACS Med Chem Lett, 2016).
